US9221814B2, “Heterocyclic guanidine F1F0-atpase inhibitors and therapeutic uses thereof” (Lycera Corporation, priority 2012, dated 2015)
Read-outs that look alike come from different tables or passages of the source.

Assays:
F1F0-ATPase = target: T1, F1F0-ATPase (Bos taurus, UniProt P13621); assay: Inhibition of F1F0-ATPase activity in synthesizing ATP (ATP synthesis inhibition); format: biochemical; details: detection limit IC50=16 μM, read-out: ATP Syn IC50
T1 construct: from tissue
Description: (§1) Exemplary compounds described in above Examples were tested for activity against F1F0-ATPase by measuring the ability of the compounds to inhibit ATP synthesis. In addition, the compounds were assessed for cytotoxicity in Ramos cells. Inhibition of F1F0-ATPase activity in synthesizing ATP and cytotoxicity in Ramos cells were measured according to the procedures described in K. M. Johnson et al. Chemistry & Biology 2005, 12, 485-496.

Ramos cells = assay: Cytotoxicity in Ramos cells; format: cell-based; details: detection limit EC50=16 μM, read-out: Ramos Cell EC50
Description: as §1

SMILES | IC50 (F1F0-ATPase) | EC50 (Ramos cells) | EC50 (Ramos cells; Homo sapiens)
Cc1oncc1C(=O)/N=C(\Nc1cc(-c2ccc(Cl)cc2)[nH]n1)NC1CCCC1 [Compound A-89] | > 16 µM | > 16 µM | –
Cc1cc(N/C(=N\C(=O)c2cc(C)oc2C(F)(F)F)NC(C)C)n[nH]1 [Compound A-112] | > 16 µM | > 16 µM | –
CCOC(=O)NC1CCC(N/C(=N/C(=O)c2cn(C)nc2C(F)(F)F)Nc2cc(F)cc(F)c2)CC1 (stereo not drawn) [Compound A-217] | > 16 µM | – | > 16 µM
Cc1cc(N/C(=N\C(=O)c2cc(C)oc2C(F)(F)F)NCC(C)C)[nH]n1 [Compound A-109] | 5 to 16 µM | > 16 µM | –
COC[C@H](C)N/C(=N/C(=O)c1cc(C)on1)Nc1cc(-c2ccc(F)cc2)n[nH]1 [Compound A-52] | > 16 µM | > 16 µM | –
CSc1ccc(N/C(=N\C(=O)c2cn(C)nc2C(F)(F)F)Nc2cc(-c3ccc(O)cc3F)n[nH]2)cc1 [Compound A-8] | 5 to 16 µM | < 5 µM | –
Cc1cc(N/C(=N\C(=O)c2cc(C)oc2C(F)(F)F)NCC(C)(C)C)n[nH]1 [Compound A-110] | 5 to 16 µM | > 16 µM | –
CC(C)CN/C(=N/C(=O)c1cn(C)nc1C(F)(F)F)Nc1cc(-c2ccc(O)cc2F)n[nH]1 [Compound 4, N-(((3-(2-Fluoro-4-hydroxyphenyl)-1H-pyrazol-5-yl)amino)(isobutylamino)methylene)-1-methyl-3-(trifluoromethyl)-1H-pyrazole-4-carboxamide] | > 16 µM | – | > 16 µM
COC[C@H](C)N/C(=N\C(=O)c1cn(C)nc1C(F)(F)F)Nc1cc(-c2cc(F)cc(F)c2)n[nH]1 [Compound A-32] | 5 to 16 µM | 5 to 16 µM | –
Cn1cc(C(=O)/N=C(\Nc2n[nH]c3cc(F)ccc23)NC(C)(C)C)c(C(F)(F)F)n1 [Compound A-206] | 5 to 16 µM | < 5 µM | –
Cn1cc(C(=O)/N=C(\Nc2cc(-c3cc(O)ccc3F)n[nH]2)NC(C)(C)C)c(C(F)(F)F)n1 [Compound A-178] | 5 to 16 µM | 5 to 16 µM | –
Cc1cc(N/C(=N\C(=O)c2cc(C)oc2C(F)(F)F)NC(C)(C)C)[nH]n1 [Compound A-107] | > 16 µM | > 16 µM | –
Cc1oncc1C(=O)/N=C(\Nc1cc(-c2cc(F)cc(Cl)c2)n[nH]1)NC(C)C [Compound A-100] | < 5 µM | < 5 µM | –
COc1cccc(CN/C(=N/C(=O)c2cc(C(C)(C)C)nn2C)Nc2cc(-c3ccc(F)cc3)n[nH]2)c1 [Compound A-46] | < 5 µM | < 5 µM | –
Cn1cc(C(=O)/N=C(/NCC(C)(C)C)Nc2cc(-c3ccc(O)cc3F)[nH]n2)c(C(F)(F)F)n1 [Compound A-138] | > 16 µM | > 16 µM | –
Cc1oncc1C(=O)/N=C(\Nc1cc(-c2cc(F)cc(Cl)c2)n[nH]1)NC1(C)CCCC1 [Compound A-98] | < 5 µM | < 5 µM | –
CC(C)CN/C(=N/C(=O)c1cn(C)nc1C(F)(F)F)Nc1n[nH]c2cc(Cl)ccc12 [Compound A-201] | < 5 µM | > 16 µM | –
CCn1nc(C)cc1C(=O)N=C(Nc1cc(-c2ccc(F)cc2)n[nH]1)NC(C)COC (stereo not drawn) [Compound A-55] | 5 to 16 µM | 5 to 16 µM | –
CCOCCCN/C(=N/C(=O)c1cc(C)oc1C(F)(F)F)Nc1cc(-c2cc(F)cc(F)c2)n[nH]1 [Compound A-200] | < 5 µM | 5 to 16 µM | –

SMILES | IC50 (F1F0-ATPase) | EC50 (Ramos cells) | EC50 (Ramos cells; Homo sapiens)
Cn1cc(C(=O)/N=C(/Nc2ccc(F)cc2)Nc2cc(-c3ccc(O)c(F)c3)n[nH]2)c(C(F)(F)F)n1 [Compound A-164] | < 5 µM | < 5 µM | –
Cn1cc(C(=O)/N=C(/Nc2cc(-c3cc(F)cc(F)c3)n[nH]2)NC2CCCC2)c(C(F)(F)F)n1 [Compound A-27] | < 5 µM | < 5 µM | –
Cc1oncc1C(=O)/N=C(\Nc1cc(-c2ccc(F)cc2)n[nH]1)NC(C)(C)C [Compound A-188] | < 5 µM | < 5 µM | –
CCCn1ccc(C(=O)N=C(Nc2cc(-c3ccc(F)cc3)n[nH]2)NC(C)C)n1 [Compound A-59] | 5 to 16 µM | – | 5 to 16 µM
O=C(/N=C(/NCc1ccc(F)cc1Cl)Nc1cc(C(F)(F)F)n[nH]1)c1nccs1 [Compound A-198] | < 5 µM | < 5 µM | –
Cc1cc(F)ccc1N/C(=N/C(=O)c1cn(C)nc1C(F)(F)F)Nc1cc(-c2ccc(O)c(F)c2)n[nH]1 [Compound A-173] | < 5 µM | < 5 µM | –
CCOCCCN/C(=N/C(=O)c1cnoc1C)Nc1cc(-c2ccc(Cl)cc2)n[nH]1 [Compound A-104] | > 16 µM | > 16 µM | –
CSc1cccc(N/C(=N\C(=O)c2cn(C)nc2C(F)(F)F)Nc2cc(-c3ccc(O)cc3F)n[nH]2)c1 [Compound A-7] | 5 to 16 µM | < 5 µM | –
CC(C)c1cc(C(=O)/N=C(\Nc2cc(-c3ccc(F)cc3)n[nH]2)NC(C)(C)C)on1 [Compound A-61] | < 5 µM | < 5 µM | –
COc1ccc(-c2cc(N/C(=N\C(=O)c3cn(C)nc3C(F)(F)F)NC(C)C)n[nH]2)cc1F [Compound A-146] | 5 to 16 µM | < 5 µM | –
Cc1nn(C)cc1C(=O)/N=C(\Nc1cc(F)cc(Cl)c1)Nc1cc(-c2ccc(O)cc2F)n[nH]1 [Compound A-2] | 5 to 16 µM | > 16 µM | –
Cn1cc(C(=O)/N=C(\Nc2cc(-c3ccc(O)c(F)c3)n[nH]2)Nc2ccc(F)cc2F)c(C(F)(F)F)n1 [Compound A-169] | < 5 µM | < 5 µM | –
Cc1oncc1C(=O)/N=C(/NCc1ccc(F)cc1Cl)Nc1cc(-c2ccc(Cl)cc2)n[nH]1 [Compound A-85] | 5 to 16 µM | 5 to 16 µM | –
Cn1cc(C(=O)/N=C(/Nc2ccc(F)c(C#N)c2)Nc2cc(-c3ccc(O)c(F)c3)n[nH]2)c(C(F)(F)F)n1 [Compound A-172] | 5 to 16 µM | > 16 µM | –
CC(C)CNC(=NC(=O)c1cn(C)nc1C(F)(F)F)Nc1n[nH]c2cncc(F)c12 [Compound A-143] | > 16 µM | – | 5 to 16 µM
CC(C)(C)N/C(=N/C(=O)c1ccno1)Nc1cc(-c2ccc(F)cc2)n[nH]1 [Compound A-38] | 5 to 16 µM | 5 to 16 µM | –
Cn1cc(C(=O)/N=C(/Nc2cc(-c3cc(F)cc(F)c3)n[nH]2)NC(C)(C)C)c(C(F)(F)F)n1 [Compound A-25] | < 5 µM | < 5 µM | –
COC[C@H](C)N/C(=N/C(=O)c1cc(C)oc1C(F)(F)F)Nc1cc(-c2cc(F)cc(F)c2)n[nH]1 [Compound A-118] | < 5 µM | 5 to 16 µM | –
Cc1cc(C(=O)/N=C(\Nc2cc(-c3ccc(F)cc3)n[nH]2)NC(C)C)no1 [Compound A-48] | > 16 µM | > 16 µM | –

More lines, main results first:

IC50 (F1F0-ATPase) | SMILES | EC50 (Ramos cells) | EC50 (Ramos cells; Homo sapiens)
< 5 µM | O=C(/N=C(\Nc1cc(C(F)(F)F)n[nH]1)NC1CCOCC1)c1ccc(Cl)s1 [Compound A-209] | < 5 µM | –
< 5 µM | Cc1oncc1C(=O)/N=C(\Nc1cc(-c2cc(F)cc(Cl)c2)n[nH]1)NC1CCC1 [Compound A-102] | < 5 µM | –
< 5 µM | Cn1cc(C(=O)/N=C(/Nc2ccc(C(C)(C)C)cc2)Nc2cc(-c3ccc(O)cc3F)n[nH]2)c(C(F)(F)F)n1 [Compound A-151] | < 5 µM | –
< 5 µM | Cn1cc(C(=O)/N=C(/Nc2ccc(F)c(F)c2)Nc2cc(-c3ccc(O)c(F)c3)n[nH]2)c(C(F)(F)F)n1 [Compound A-176] | < 5 µM | –
< 5 µM | COc1ccc(-c2cc(N/C(=N\C(=O)c3cn(C)nc3C(F)(F)F)Nc3ccc(F)cc3F)[nH]n2)cc1F [Compound A-161] | > 16 µM | –
< 5 µM | COCC(C)NC(=NC(=O)c1cc(C)nn1C)Nc1cc(-c2ccc(Cl)cc2)n[nH]1 (stereo not drawn) [Compound A-67] | – | 5 to 16 µM
< 5 µM | CC(C)CN/C(=N/C(=O)c1cc(C(C)(C)C)nn1C)Nc1cc(-c2ccc(Cl)cc2)n[nH]1 [Compound A-73] | < 5 µM | –
< 5 µM | CCOC(=O)NC1CCC(N/C(=N\C(=O)c2cc(C)oc2C(F)(F)F)Nc2cc(OC)ccc2C)CC1 (stereo not drawn) [Compound A-212] | – | 5 to 16 µM
< 5 µM | Cn1nc(C(C)(C)C)cc1C(=O)/N=C(\Nc1cc(-c2ccc(Cl)cc2)n[nH]1)NC1CCCC1 [Compound A-74] | < 5 µM | –
< 5 µM | Cc1cc(C(=O)/N=C(\Nc2cc(-c3ccc(F)cc3)n[nH]2)NC(C)C)c(C(F)(F)F)o1 [Compound A-195] | 5 to 16 µM | –
< 5 µM | Cc1ccc(-c2cc(N/C(=N\C(=O)c3cnoc3C)NC3(C)CCCC3)[nH]n2)cc1F [Compound A-92] | < 5 µM | –
< 5 µM | CCC(C)N/C(=N/C(=O)c1cnoc1C)Nc1cc(-c2cc(F)cc(Cl)c2)n[nH]1 (stereo not drawn) [Compound A-101] | < 5 µM | –
< 5 µM | Cc1oncc1C(=O)N=C(Nc1cc(-c2cc(F)cc(Cl)c2)n[nH]1)NC1CCCC1 [Compound A-97] | – | < 5 µM
< 5 µM | Cc1cc(C(=O)/N=C(\Nc2ccc(C(F)(F)F)nc2)Nc2cccc(Cl)c2)n(C)n1 [Compound A-230] | – | < 5 µM
< 5 µM | Cc1cc(C(=O)/N=C(\Nc2cc(-c3cc(F)cc(F)c3)[nH]n2)NC(C)C)c(C(F)(F)F)o1 [Compound A-117] | 5 to 16 µM | –
< 5 µM | Cc1cc(C(=O)/N=C(\Nc2ccc(C(F)(F)F)nc2)Nc2cccc(C(F)(F)F)c2)on1 [Compound A-233] | – | < 5 µM
< 5 µM | CCOCCCNC(=NC(=O)c1cc(C)oc1C(F)(F)F)Nc1cc(-c2ccc(F)cc2)n[nH]1 [Compound A-199] | – | < 5 µM
< 5 µM | CCOC(=O)NC1CCC(N/C(=N\C(=O)c2cc(C)oc2C(F)(F)F)Nc2cc(F)cc(Cl)c2)CC1 (stereo not drawn) [Compound A-127] | – | < 5 µM
< 5 µM | Cc1cc(C(=O)N=C(Nc2cc(-c3ccc(Cl)cc3)n[nH]2)NC(C)C)n(C)n1 [Compound A-64] | – | 5 to 16 µM
